Results from US20260215432A1, “ANTIMICROBIAL CONJUGATED OLIGOELECTROLYTES AND METHODS THEREOF” (National University of Singapore, priority 2023, published 2026).

Columns and labels:
[1] = system: E. coli. K12 (ATCC 10798); assay: MIC, broth microdilution in CA-MHB; type: cell-based; conditions: ATCC 10798, Table 7
Experimental: Antimicrobial activity was screened against a range of pathogens made up of clinically relevant ESKAPE pathogens by determination of the minimum inhibitory concentration (MIC) in cation-adjusted Mueller-Hinton broth (CA-MHB).
(§1) Minimum inhibitory concentrations of COEs were determined through a broth microdilution method in accordance with the Clinical and Laboratory Standards Institute (CLSI) guidelines M07-A10. A single bacterial colony was isolated from an overnight culture and grown to mid-log phase (OD600~0.8). Compounds were prepared as a stock solution in DMSO and diluted in a sterile flat-bottom 96-well plate in CA-MHB. Subsequent concentrations were prepared by two-fold dilution of the initial solution. An equivalent volume of bacteria was added to the compound to a final concentration of 5×10^5 cfu/mL. Plates were incubated at 37° C. for 16-18 hours, and read at OD600 using a microplate reader (TECAN Spark®). […] MIC values were determined for each compound in triplicate.

[2] = system: methicillin-resistant S. aureus (USA300); assay: MIC of compounds 1-5; type: cell-based; conditions: USA300, Table 7
Experimental: as §1, with “triplicate. For each test, Polymyxin B (Gram-negative) or vancomycin (Gram-positive) was used as a positive control.” for “triplicate.”

| SMILES | MIC E. coli K12 [1] | MIC MRSA [2] |
| --- | --- | --- |
| C(=C\c1cc(OCCC[P+](c2ccccc2)(c2ccccc2)c2ccccc2)cc(OCCC[P+](c2ccccc2)(c2ccccc2)c2ccccc2)c1)/c1ccc(/C=C/c2cc(OCCC[P+](c3ccccc3)(c3ccccc3)c3ccccc3)cc(OCCC[P+](c3ccccc3)(c3ccccc3)c3ccccc3)c2)cc1.[I-].[I-].[I-].[I-] [Compound 5] | 64 µg/mL | 32 µg/mL |
| [I-].[I-].c1ccc([P+](CCCCCCCCOc2ccc(/N=N/c3ccc(OCCCCCCCC[P+](c4ccccc4)(c4ccccc4)c4ccccc4)cc3)cc2)(c2ccccc2)c2ccccc2)cc1 [Compound 3] | 32 µg/mL | 4 µg/mL |
